Test results: ChEMBL document CHEMBL5543147, “Discovery and Characterization of a Novel Cereblon-Recruiting PRC1 Bridged PROTAC Degrader” (J Med Chem, 2024)
pKd: −log10 of the molar value. Activity calls are given as the source filed them. The rule behind the calls is not given here.

Experiments:
[1] = biological target: Protein cereblon/Histone-lysine N-methyltransferase EZH2 (Homo sapiens) (UniProt Q15910+Q96SW2); assay: PROTAC activity at CRBN/EZH2 in human K562 cells assessed as degradation of EZH2 protein expression at 0.1 to 10 uM incubated for 24 hrs by Western blotting analysis; type: cell-based; settings: dose 0.1-10 µM
Chain of Protein cereblon/Histone-lysine N-methyltransferase EZH2 (Homo sapiens) (Q15910 whole entry, looked up): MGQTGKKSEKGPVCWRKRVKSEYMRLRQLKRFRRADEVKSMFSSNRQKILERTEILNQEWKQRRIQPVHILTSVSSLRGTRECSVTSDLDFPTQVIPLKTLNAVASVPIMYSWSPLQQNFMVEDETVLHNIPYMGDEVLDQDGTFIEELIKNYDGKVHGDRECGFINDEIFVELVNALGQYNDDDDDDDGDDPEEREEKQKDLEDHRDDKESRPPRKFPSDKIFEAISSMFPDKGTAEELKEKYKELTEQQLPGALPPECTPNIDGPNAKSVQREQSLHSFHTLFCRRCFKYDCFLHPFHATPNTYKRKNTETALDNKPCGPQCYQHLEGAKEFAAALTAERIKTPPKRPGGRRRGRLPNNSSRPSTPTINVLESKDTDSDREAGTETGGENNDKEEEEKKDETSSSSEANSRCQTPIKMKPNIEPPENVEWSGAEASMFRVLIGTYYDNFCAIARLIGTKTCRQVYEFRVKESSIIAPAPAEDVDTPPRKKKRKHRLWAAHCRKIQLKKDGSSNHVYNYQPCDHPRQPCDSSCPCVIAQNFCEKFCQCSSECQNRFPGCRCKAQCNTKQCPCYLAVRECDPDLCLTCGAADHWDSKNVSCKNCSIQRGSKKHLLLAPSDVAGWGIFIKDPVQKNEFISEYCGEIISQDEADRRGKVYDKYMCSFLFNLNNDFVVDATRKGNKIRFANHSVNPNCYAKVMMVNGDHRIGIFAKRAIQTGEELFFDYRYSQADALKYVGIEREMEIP
Chain of Protein cereblon/Histone-lysine N-methyltransferase EZH2 (Homo sapiens) (Q96SW2 whole entry, looked up): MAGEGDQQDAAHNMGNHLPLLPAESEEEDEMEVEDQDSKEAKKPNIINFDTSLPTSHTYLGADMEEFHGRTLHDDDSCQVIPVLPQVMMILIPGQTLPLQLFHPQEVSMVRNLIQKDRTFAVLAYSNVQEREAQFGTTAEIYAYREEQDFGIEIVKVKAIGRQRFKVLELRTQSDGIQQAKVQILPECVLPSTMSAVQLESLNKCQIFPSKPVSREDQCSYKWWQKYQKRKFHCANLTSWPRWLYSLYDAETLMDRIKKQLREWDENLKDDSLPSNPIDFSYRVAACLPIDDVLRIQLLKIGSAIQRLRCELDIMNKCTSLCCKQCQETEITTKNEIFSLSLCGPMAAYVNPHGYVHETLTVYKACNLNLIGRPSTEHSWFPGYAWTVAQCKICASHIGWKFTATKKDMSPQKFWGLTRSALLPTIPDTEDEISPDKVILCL

[2] = biological target: Protein cereblon/Polycomb protein SUZ12 (Homo sapiens) (UniProt Q15022+Q96SW2); assay: PROTAC activity at CRBN/SUZ12 in human K562 cells assessed as degradation of SUZ12 protein expression at 0.1 to 10 uM incubated for 24 hrs by Western blotting analysis; type: cell-based; settings: dose 0.1-10 µM
Chain of Protein cereblon/Polycomb protein SUZ12 (Homo sapiens) (Q15022 whole entry, looked up): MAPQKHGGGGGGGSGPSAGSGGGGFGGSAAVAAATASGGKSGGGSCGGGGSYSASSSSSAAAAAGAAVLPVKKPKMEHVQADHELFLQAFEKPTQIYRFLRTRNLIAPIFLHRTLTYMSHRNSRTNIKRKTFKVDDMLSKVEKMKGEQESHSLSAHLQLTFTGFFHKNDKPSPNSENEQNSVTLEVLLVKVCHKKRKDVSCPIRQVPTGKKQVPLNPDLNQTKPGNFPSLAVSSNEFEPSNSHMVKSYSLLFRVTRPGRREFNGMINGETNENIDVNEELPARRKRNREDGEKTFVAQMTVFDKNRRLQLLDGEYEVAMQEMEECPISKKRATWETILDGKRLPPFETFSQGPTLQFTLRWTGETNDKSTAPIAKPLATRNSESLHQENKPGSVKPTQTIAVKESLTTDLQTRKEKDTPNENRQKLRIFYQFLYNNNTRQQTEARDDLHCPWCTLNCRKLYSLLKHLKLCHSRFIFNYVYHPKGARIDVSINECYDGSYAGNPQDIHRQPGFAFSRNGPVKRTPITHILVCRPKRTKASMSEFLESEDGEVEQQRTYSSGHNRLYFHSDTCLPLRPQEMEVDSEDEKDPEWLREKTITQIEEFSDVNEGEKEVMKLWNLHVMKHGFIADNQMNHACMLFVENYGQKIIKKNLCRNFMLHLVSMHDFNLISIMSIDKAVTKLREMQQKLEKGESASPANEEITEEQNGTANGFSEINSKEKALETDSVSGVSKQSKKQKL
Chain of Protein cereblon/Polycomb protein SUZ12 (Homo sapiens) (Q96SW2 whole entry, looked up): as the sequence (Q96SW2 whole entry, looked up) above

K562 [3] = assay: Induction of PRC2 degradation in human K562 cells assessed as reduction of H3K27me3 chromatin mark at 0.1 to 10 uM incubated for 24 hrs by Western blotting analysis; type: cell-based; settings: dose 0.1-10 µM
K562 [4] = assay: Induction of PRC1 degradation in human K562 cells assessed as reduction of H2AK119ub chromatin mark at 0.1 to 10 uM incubated for 24 hrs by Western blotting analysis; type: cell-based; settings: dose 0.1-10 µM
[5] = biological target: Protein cereblon/Polycomb complex protein BMI-1 (Homo sapiens, UniProt Q96SW2+P35226); assay: PROTAC activity at […] in human K562 cells assessed as degradation of BMI1 protein expression at 0.1 to 10 uM incubated for 24 hrs by Western blotting analysis; type: cell-based; settings: dose 0.1-10 µM
Chain of Protein cereblon/Polycomb complex protein BMI-1 (P35226 whole entry, looked up): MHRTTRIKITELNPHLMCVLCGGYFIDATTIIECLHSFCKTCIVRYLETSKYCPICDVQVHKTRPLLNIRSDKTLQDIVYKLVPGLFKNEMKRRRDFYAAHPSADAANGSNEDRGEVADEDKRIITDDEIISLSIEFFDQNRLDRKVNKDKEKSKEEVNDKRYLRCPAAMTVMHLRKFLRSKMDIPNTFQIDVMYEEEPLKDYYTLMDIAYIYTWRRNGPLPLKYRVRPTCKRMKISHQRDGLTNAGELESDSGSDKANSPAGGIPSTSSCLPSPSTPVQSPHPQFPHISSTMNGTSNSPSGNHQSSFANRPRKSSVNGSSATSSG
Chain of Protein cereblon/Polycomb complex protein BMI-1 (Q96SW2 whole entry, looked up): as the sequence (Q96SW2 whole entry, looked up) above

[6] = biological target: T1, Protein cereblon/E3 ubiquitin-protein ligase RING2 (Homo sapiens, UniProt Q96SW2+Q99496); assay: PROTAC activity at CRBN/RING1B in human K562 cells assessed as degradation of RING1B protein expression at 0.1 to 10 uM incubated for 24 hrs by Western blotting analysis; type: cell-based; settings: dose 0.1-10 µM
T1 sequence (Q96SW2 whole entry): as the sequence (Q96SW2 whole entry, looked up) above
T1 sequence (Q99496 2-336 partner limits assumed): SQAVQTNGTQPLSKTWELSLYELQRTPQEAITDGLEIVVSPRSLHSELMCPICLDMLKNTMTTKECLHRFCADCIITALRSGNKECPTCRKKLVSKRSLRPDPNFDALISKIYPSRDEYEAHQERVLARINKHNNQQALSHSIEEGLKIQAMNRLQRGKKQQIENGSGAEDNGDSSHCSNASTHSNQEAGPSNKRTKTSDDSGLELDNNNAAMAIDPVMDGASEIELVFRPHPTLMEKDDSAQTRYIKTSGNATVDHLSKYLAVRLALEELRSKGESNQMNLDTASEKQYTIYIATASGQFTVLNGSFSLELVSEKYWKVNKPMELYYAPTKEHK

[7] = biological target: Protein cereblon/Polycomb protein EED (Homo sapiens, UniProt O75530+Q96SW2); assay: PROTAC activity at CRBN/EED in human K562 cells assessed as degradation of EED protein expression at 0.1 to 10 uM incubated for 24 hrs by Western blotting analysis; type: cell-based; settings: dose 0.1-10 µM
Chain of Protein cereblon/Polycomb protein EED (O75530 2-441 limits assumed): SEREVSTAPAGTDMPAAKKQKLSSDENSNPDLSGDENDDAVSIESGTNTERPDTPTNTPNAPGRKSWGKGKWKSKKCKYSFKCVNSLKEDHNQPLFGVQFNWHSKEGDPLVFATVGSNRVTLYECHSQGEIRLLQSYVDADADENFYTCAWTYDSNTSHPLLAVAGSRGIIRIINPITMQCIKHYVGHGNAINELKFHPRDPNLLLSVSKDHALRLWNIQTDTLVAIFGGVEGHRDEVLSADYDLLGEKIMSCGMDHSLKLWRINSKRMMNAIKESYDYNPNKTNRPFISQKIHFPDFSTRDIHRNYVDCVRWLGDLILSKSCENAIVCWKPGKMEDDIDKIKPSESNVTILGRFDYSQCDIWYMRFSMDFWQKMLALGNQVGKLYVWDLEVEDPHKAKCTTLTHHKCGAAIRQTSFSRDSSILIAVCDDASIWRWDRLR
Chain of Protein cereblon/Polycomb protein EED (Q96SW2 whole entry partner): as the sequence (Q96SW2 whole entry, looked up) above

[8] = biological target: von Hippel-Lindau disease tumor suppressor/Polycomb protein EED (Homo sapiens, UniProt O75530+P40337); assay: PROTAC activity at VHL/EED in human KARPAS-422 cells assessed as degradation of EED protein expression by Western blotting analysis; type: cell-based
Chain of von Hippel-Lindau disease tumor suppressor/Polycomb protein EED (O75530 whole entry): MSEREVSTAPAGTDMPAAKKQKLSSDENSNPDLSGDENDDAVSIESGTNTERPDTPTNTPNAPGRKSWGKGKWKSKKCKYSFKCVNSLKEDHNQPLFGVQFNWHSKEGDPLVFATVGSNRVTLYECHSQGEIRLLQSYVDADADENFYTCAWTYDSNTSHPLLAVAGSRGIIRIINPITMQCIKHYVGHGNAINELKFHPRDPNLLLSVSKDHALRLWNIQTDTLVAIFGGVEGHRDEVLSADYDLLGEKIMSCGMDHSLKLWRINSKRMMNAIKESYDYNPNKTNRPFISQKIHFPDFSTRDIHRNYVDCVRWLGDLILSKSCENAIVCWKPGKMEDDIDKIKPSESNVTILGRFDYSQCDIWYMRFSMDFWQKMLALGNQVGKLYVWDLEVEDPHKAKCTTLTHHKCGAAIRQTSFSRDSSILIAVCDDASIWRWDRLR
Chain of von Hippel-Lindau disease tumor suppressor/Polycomb protein EED (P40337 whole entry): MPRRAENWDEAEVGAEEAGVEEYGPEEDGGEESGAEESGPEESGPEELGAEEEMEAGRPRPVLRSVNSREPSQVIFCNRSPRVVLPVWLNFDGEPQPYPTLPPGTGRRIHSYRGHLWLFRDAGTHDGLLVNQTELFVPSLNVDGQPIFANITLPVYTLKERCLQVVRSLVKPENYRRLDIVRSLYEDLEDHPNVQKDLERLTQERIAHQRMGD

[9] = biological target: von Hippel-Lindau disease tumor suppressor/Histone-lysine N-methyltransferase EZH2 (Homo sapiens, UniProt Q15910+P40337); assay: PROTAC activity at VHL/EZH2 in human KARPAS-422 cells assessed as degradation of EZH2 protein expression by Western blotting analysis; type: cell-based
Chain of von Hippel-Lindau disease tumor suppressor/Histone-lysine N-methyltransferase EZH2 (Q15910 whole entry, the tested form may be a part): as the sequence (Q15910 whole entry, looked up) above
Chain of von Hippel-Lindau disease tumor suppressor/Histone-lysine N-methyltransferase EZH2 (P40337 whole entry, the tested form may be a part): as the sequence (P40337 whole entry) above

Polycomb protein EED = Polycomb protein EED (Homo sapiens, UniProt O75530); assay: Binding affinity to EED (75 to 441 residues) (unknown origin) expressed in Escherichia coli BL21 (DE3) assessed as dissociation constant by isothermal titration calorimetry
Chain of Polycomb protein EED (O75530 whole entry, the tested form may be a part): as the sequence (O75530 whole entry) above

[10] = biological target: T2, von Hippel-Lindau disease tumor suppressor/Polycomb complex protein BMI-1 (Homo sapiens) (UniProt P40337+P35226); assay: PROTAC activity at […] in human 786-0 cells with defective VHL assessed as degradation of BMI1 protein expression at 10 uM incubated for 24 hrs by Western blotting analysis; type: cell-based
T2 sequence (P35226 whole entry, looked up): as the sequence (P35226 whole entry, looked up) above
T2 sequence (P40337 whole entry, looked up): as the sequence (P40337 whole entry) above

[11] = biological target: T1, Protein cereblon/E3 ubiquitin-protein ligase RING2; assay: PROTAC activity at CRBN/RING1B in human 786-0 cells with defective VHL assessed as degradation of RING1B protein expression at 10 uM incubated for 24 hrs by Western blotting analysis; type: cell-based
786-0 [12] = assay: Induction of PRC2 degradation in human 786-0 cells with defective VHL assessed as reduction of H3K27me3 chromatin mark at 10 uM incubated for 24 hrs by Western blotting analysis; type: cell-based
786-0 [13] = assay: Induction of PRC1 degradation in human 786-0 cells with defective VHL assessed as reduction of H2AK119ub chromatin mark at 10 uM incubated for 24 hrs by Western blotting analysis; type: cell-based
786-0 [14] = assay: Antiproliferative activity against human 786-0 cells assessed as inhibition of cell growth at 0.5 to 30 uM incubated for 7 days by WST-8 assay; type: functional, cell-based; settings: dose 0.5-30 µM, time 7.0 day
[15] = biological target: T2, von Hippel-Lindau disease tumor suppressor/Polycomb complex protein BMI-1 (Homo sapiens); assay: PROTAC activity at […] in human K562 cells assessed as degradation of BMI1 protein expression at 1 to 10 uM incubated for 24 hrs by Western blotting analysis; type: cell-based; settings: dose 1-10 µM
[16] = biological target: T1, Protein cereblon/E3 ubiquitin-protein ligase RING2; assay: PROTAC activity at CRBN/RING1B in human K562 cells assessed as degradation of RING1B protein expression at 1 to 10 uM incubated for 24 hrs by Western blotting analysis; type: cell-based; settings: dose 1-10 µM
K562 [17] = assay: Induction of PRC2 degradation in human K562 cells assessed as reduction of H3K27me3 chromatin mark at 1 to 10 uM incubated for 24 hrs by Western blotting analysis; type: cell-based; settings: dose 1-10 µM
K562 [18] = assay: Antiproliferative activity against human K562 cells assessed as cell growth inhibition incubated for 7 days by WST-8 assay; type: functional; settings: time 7.0 day
K562 [19] = assay: Antiproliferative activity against human K562 cells assessed as increase in HoxA mRNA expression at 10 uM incubated for 24 hrs by RT-qPCR analysis; type: functional, cell-based
K562 [20] = assay: Antiproliferative activity against human K562 cells assessed as increase in HoxD mRNA expression at 10 uM incubated for 24 hrs by RT-qPCR analysis; type: functional, cell-based
PC-3M [21] = assay: Induction of PRC2 degradation in human PC-3M cells assessed as reduction of H3K27me3 chromatin mark at 0.2 to 5 uM incubated for 24 hrs by Western blotting analysis; type: cell-based; settings: dose 0.2-5 µM
PC-3M [22] = assay: Induction of PRC1 degradation in human PC-3M cells assessed as reduction of H2AK119ub chromatin mark at 0.2 to 5 uM incubated for 24 hrs by Western blotting analysis; type: cell-based; settings: dose 0.2-5 µM
MDA-MB-468 [23] = assay: Induction of PRC2 degradation in human MDA-MB-468 cells assessed as reduction of H3K27me3 chromatin mark at 0.2 to 5 uM incubated for 24 hrs by Western blotting analysis; type: cell-based; settings: dose 0.2-5 µM
MDA-MB-468 [24] = assay: Induction of PRC1 degradation in human MDA-MB-468 cells assessed as reduction of H2AK119ub chromatin mark at 0.2 to 5 uM incubated for 24 hrs by Western blotting analysis; type: cell-based; settings: dose 0.2-5 µM
K562 [25] = assay: Induction of PRC1 degradation in human K562 cells assessed as reduction of H2AK119ub chromatin mark at 1 to 10 uM incubated for 24 hrs by Western blotting analysis; type: cell-based; settings: dose 1-10 µM

| Activity [1] | Activity [2] | Activity [5] | Activity [6] | Activity [7] | SMILES | Activity (K562 [3]) | Activity (K562 [4]) | also measured |
| --- | --- | --- | --- | --- | --- | --- | --- | --- |
| inactive | inactive | inactive | inactive | inactive | O=C(CCCCNc1cccc2c1C(=O)N(C1CCC(=O)NC1=O)C2=O)NCCCCN1CCN(c2ccc(-c3cnc(NCc4ccco4)n4cnnc34)cc2)CC1 (stereo unspecified) | inactive | inactive |  |
| inactive | inactive | inactive | inactive | inactive | O=C(CCOCCNc1cccc2c1C(=O)N(C1CCC(=O)NC1=O)C2=O)NCCCCN1CCN(c2ccc(-c3cnc(NCc4ccco4)n4cnnc34)cc2)CC1 (stereo unspecified) | inactive | inactive |  |
| inactive | inactive | inactive | inactive | inactive | O=C(CCCNc1cccc2c1C(=O)N(C1CCC(=O)NC1=O)C2=O)NCCCCN1CCN(c2ccc(-c3cnc(NCc4ccco4)n4cnnc34)cc2)CC1 (stereo unspecified) | inactive | inactive |  |
|  |  |  |  |  | Cc1nc(CCC(=O)NCCCC(=O)N[C@H](C(=O)N2C[C@H](O)C[C@H]2C(=O)NCc2ccc(-c3scnc3C)cc2)C(C)(C)C)ccc1-c1cnc(NCc2c(F)ccc3c2CCO3)n2cnnc12 |  |  | DC50 [8]: < 120 nM; DC50 [9]: < 1000 nM |
|  |  |  |  |  | Cc1ncsc1-c1ccc(CNC(=O)[C@@H]2C[C@@H](O)CN2C(=O)[C@@H](NC(=O)CCCCCCNC(=O)CCCCN2CCN(c3ccc(-c4cnc(NCc5ccco5)n5cnnc45)cc3)CC2)C(C)(C)C)cc1 |  |  | pKd (Polycomb protein EED): 5.52; Activity [10]: inactive; Activity [11]: inactive; Activity (786-0 [12]): Active; Activity (786-0 [13]): Active; Activity (786-0 [14]): inactive |
|  |  |  |  |  | CS(=O)(=O)c1ccc(-c2cnc(NCc3ccco3)n3cnnc23)cc1 |  |  | Activity [15]: inactive; Activity [16]: inactive; Activity (K562 [17]): Active; Activity (K562 [18]): inactive; Activity (K562 [19]): inactive; Activity (K562 [20]): inactive; Activity [10]: inactive; Activity [11]: inactive; Activity (PC-3M [21]): Active; Activity (PC-3M [22]): inactive; Activity (MDA-MB-468 [23]): Active; Activity (MDA-MB-468 [24]): inactive |
| inactive | inactive | inactive | inactive | inactive | O=C(CCOCCOCCOCCNc1cccc2c1C(=O)N(C1CCC(=O)NC1=O)C2=O)NCCCCN1CCN(c2ccc(-c3cnc(NCc4ccco4)n4cnnc34)cc2)CC1 (stereo unspecified) | inactive | inactive |  |
| inactive | inactive | inactive | inactive | inactive | O=C(CCNc1cccc2c1C(=O)N(C1CCC(=O)NC1=O)C2=O)NCCCCN1CCN(c2ccc(-c3cnc(NCc4ccco4)n4cnnc34)cc2)CC1 (stereo unspecified) | inactive | inactive |  |
| Active | Active | inactive | inactive | Active | O=C(CCOCCOCCNc1cccc2c1C(=O)N(C1CCC(=O)NC1=O)C2=O)NCCCCN1CCN(c2ccc(-c3cnc(NCc4ccco4)n4cnnc34)cc2)CC1 (stereo unspecified) | Active | inactive |  |
| inactive | inactive | inactive | inactive | inactive | O=C(CCOCCOCCOCCOCCNc1cccc2c1C(=O)N(C1CCC(=O)NC1=O)C2=O)NCCCCN1CCN(c2ccc(-c3cnc(NCc4ccco4)n4cnnc34)cc2)CC1 (stereo unspecified) | inactive | inactive |  |
|  |  |  |  |  | Cc1ncsc1-c1ccc(CNC(=O)[C@@H]2C[C@@H](O)CN2C(=O)[C@@H](NC(=O)CCCNC(=O)c2ccc(-c3cnc(NCc4ccco4)n4cnnc34)cc2)C(C)(C)C)cc1 |  |  | Activity [15]: inactive; Activity [16]: inactive; Activity (K562 [17]): Active; Activity (K562 [25]): inactive; Activity (K562 [18]): inactive |
| inactive | inactive | inactive | inactive | inactive | O=C(CCCCCNc1cccc2c1C(=O)N(C1CCC(=O)NC1=O)C2=O)NCCCCN1CCN(c2ccc(-c3cnc(NCc4ccco4)n4cnnc34)cc2)CC1 (stereo unspecified) | inactive | inactive |  |
